Test results published in patent US20140350273A1, “PEDIATRIC USES OF CABAZITAXEL” (AVENTIS PHARMA S.A., priority 2012, published 2014).
Like-named read-outs stand apart in the source and are kept apart here.

System: human osteosarcoma DM77
Type: in vivo
Conditions: for Tumor Volume Data (Day 21) Median / ΔT/ΔC % / ΔT/ΔC: day 21; for MTTE / T-C: volume endpoint 1400 mm^3
Procedure: In the reported examples supporting this invention, vials of the clinical formulation of cabazitaxel and docetaxel were used. […] The resultant solution contains 10 mg/mL of cabazitaxel. Stock solution of cabazitaxel was then diluted in 0.9% sodium chloride.
This efficacy may be quantified, for example, as changes in tumor volume for each treated (T) and control (C) group, which are calculated for each animal and each day by subtracting the tumor volume on the day of first treatment (staging day) from the tumor volume on the specified observation day. This allows calculating the tumor growth inhibition: ΔT/ΔC=(median delta T/median delta C)×100. Individual tumor volume changes from baseline are thereafter analyzed by a non-parametric two-way ANOVA-TYPE (with factors: group and repeated days) followed by a post-hoc contrasts analysis, with Bonferroni-Holm adjustment for multiplicity, comparing all treated groups to the control group. […] A probability less than 5% (p<0.05) was considered as significant.
Based on the National Cancer Institute (NCl) standards, a ΔT/ΔC≦40% is the minimal level required to declare activity.
This efficacy may also be quantified by the number of tumor regressions observed after therapy. Individual mice reporting a tumor volume ≦50% of the Day 0 measurement for two consecutive measurements over a seven day period were considered partial responders (PR). Individual mice lacking palpable tumors (<4×4 mm^2 for two consecutive measurements over a seven day period) were classified as complete responders (CR); a CR that persisted until study completion was considered a tumor-free survivor (TFS).
Efficacy could also be determined at study completion, using tumor growth delay (T-C) in days, which is calculated using the median time to endpoint (MTTE) value for each treatment (T) group versus control (C). A Log Rank multiple comparison test with Bonferroni-Holm adjustment for multiplicity was applied on individual TTE to compare the treated groups to the control group.
The efficacy of cabazitaxel in comparison with docetaxel on pediatric patient-derived tumor xenografts was determined experimentally in the following manner:
The animals subjected to the experiment are subcutaneously grafted unilaterally with approximately 30 mg of a tumor fragment from low passage pediatric patient-derived tumor xenografts. The animals are implanted with a human patient-derived pediatric tumor xenografted in immuno-compromised mice (Harlan; nu/nu). Several days post tumor implantation, mice are randomized according to their tumor burden to the different groups of treatments and controls. The agents are dosed intravenously at 5.8, 9.3, 15 or 24.2 mg/kg every 4 days for a total of 3 doses (q4d×3) to mice bearing a tumor burden at start of therapy (day 0) ranged from 125 to 250 mm^3.
Beginning Day 0, animals were observed daily and weighed twice weekly using a digital scale; data including individual and mean gram weights (Mean We±SD), mean percent weight change versus Day 0 were recorded for each group. Animal deaths were recorded daily and designated as drug-related (D), technical (T), tumor related (B), or unknown (U) based on weight loss and gross observation; single agent or combination groups reporting a mean >20% for a period of 7 days and/or >10% mortality were considered above the maximum tolerated dose (MTD) for that treatment on the evaluated regimen.
The selected tumor model, DM77, was a low passage patient-derived tumor xenograft derived from an osteosarcoma taken from the lung of a patient. […]

## CO[C@H]1C(=O)[C@]2(C)[C@@H](OC)C[C@H]3OC[C@@]3(OC(C)=O)[C@H]2[C@H](OC(=O)c2ccccc2)[C@]2(O)C[C@H](OC(=O)[C@H](O)[C@@H](NC(=O)OC(C)(C)C)c3ccccc3)C(C)=C1C2(C)C [Cabazitaxel, 4α-acetoxy-2α-benzoyloxy-5β,20-epoxy-1β-hydroxy-7β,10β-dimethoxy-9-oxo-11-taxen-13α-yl (2R,3S)-3-tert-butoxycarbonyl-amino-2-hydroxy-3-phenylpropionate]
5.8 mg/kg i.v./q4dx3
  #CR: 0/0/0
  #PR: 0/0/0
  #TFS: 0/0/0
  Drug Deaths Total: 0
  Weight Change at Nadir %: −5%
  Weight Change at Nadir Day: 11 days
  Tumor Volume Data (Day 21) Median: 333 mm^3
  ΔT/ΔC %: 14.1%
  MTTE: 49 days
  T-C: 24 days
5.8 mg/kg q4d×3 IV
  ΔT/ΔC: 14.1%
5.8 mg/kg, DAY 4
  tumor volume changes from baseline, Median +/− nMAD: 47 +/− 47
5.8 mg/kg, DAY 7
  tumor volume changes from baseline, Median +/− nMAD: 121 +/− 80
5.8 mg/kg, DAY 11
  tumor volume changes from baseline, Median +/− nMAD: 162 +/− 89
5.8 mg/kg, DAY 14
  tumor volume changes from baseline, Median +/− nMAD: 162 +/− 97
5.8 mg/kg, DAY 18
  tumor volume changes from baseline, Median +/− nMAD: 195 +/− 122
5.8 mg/kg, DAY 21
  tumor volume changes from baseline, Median +/− nMAD: 129 +/− 129
5.8 mg/kg, DAY 25
  tumor volume changes from baseline, Median +/− nMAD: 96 +/− 115
5.8 mg/kg, DAY 28
  tumor volume changes from baseline, Median +/− nMAD: 96 +/− 115
5.8 mg/kg, DAY 32
  tumor volume changes from baseline, Median +/− nMAD: 96 +/− 109
5.8 mg/kg, DAY 35
  tumor volume changes from baseline, Median +/− nMAD: 169 +/− 182
5.8 mg/kg, DAY 39
  tumor volume changes from baseline, Median +/− nMAD: 239 +/− 172.5
5.8 mg/kg, DAY 42
  tumor volume changes from baseline, Median +/− nMAD: 240 +/− 162
5.8 mg/kg, DAY 46
  tumor volume changes from baseline, Median +/− nMAD: 364.5 +/− 226
5.8 mg/kg, DAY 49
  tumor volume changes from baseline, Median +/− nMAD: 402 +/− 254
5.8 mg/kg, DAY 53
  tumor volume changes from baseline, Median +/− nMAD: 706 +/− 516
5.8 mg/kg, DAY 56
  tumor volume changes from baseline, Median +/− nMAD: 878 +/− 602.5
9.3 mg/kg i.v./q4dx3
  #CR: 0
  #PR: 2
  #TFS: 0
  Drug Deaths Total: 0
  Weight Change at Nadir %: −8%
  Weight Change at Nadir Day: 11 days
  Tumor Volume Data (Day 21) Median: 131 mm^3
  ΔT/ΔC %: 0%
  MTTE: >60 days
  T-C: >35 days
9.3 mg/kg q4d×3 IV
  numbers of PR: 2/9
  ΔT/ΔC: 0%
9.3 mg/kg, DAY 4
  tumor volume changes from baseline, Median +/− nMAD: 54 +/− 54
9.3 mg/kg, DAY 7
  tumor volume changes from baseline, Median +/− nMAD: 73 +/− 73
9.3 mg/kg, DAY 11
  tumor volume changes from baseline, Median +/− nMAD: 19 +/− 35
9.3 mg/kg, DAY 14
  tumor volume changes from baseline, Median +/− nMAD: 19 +/− 35
9.3 mg/kg, DAY 18
  tumor volume changes from baseline, Median +/− nMAD: 0 +/− 33
9.3 mg/kg, DAY 21
  tumor volume changes from baseline, Median +/− nMAD: 0 +/− 34
9.3 mg/kg, DAY 25
  tumor volume changes from baseline, Median +/− nMAD: −19 +/− 26
9.3 mg/kg, DAY 28
  tumor volume changes from baseline, Median +/− nMAD: −45 +/− 26
9.3 mg/kg, DAY 32
  tumor volume changes from baseline, Median +/− nMAD: −45 +/− 26
9.3 mg/kg, DAY 35
  tumor volume changes from baseline, Median +/− nMAD: −66 +/− 7
9.3 mg/kg, DAY 39
  tumor volume changes from baseline, Median +/− nMAD: −66 +/− 7
9.3 mg/kg, DAY 42
  tumor volume changes from baseline, Median +/− nMAD: −66 +/− 7
9.3 mg/kg, DAY 46
  tumor volume changes from baseline, Median +/− nMAD: −66 +/− 7
9.3 mg/kg, DAY 49
  tumor volume changes from baseline, Median +/− nMAD: −66 +/− 7
9.3 mg/kg, DAY 53
  tumor volume changes from baseline, Median +/− nMAD: −47 +/− 25
9.3 mg/kg, DAY 56
  tumor volume changes from baseline, Median +/− nMAD: −47 +/− 26
15 mg/kg i.v./q4dx3
  #CR: 0
  #PR: 6
  #TFS: 0
  Drug Deaths Total: 0
  Weight Change at Nadir %: −9%
  Weight Change at Nadir Day: 11 days
  Tumor Volume Data (Day 21) Median: 78 mm^3
  ΔT/ΔC %: −9.3%
  MTTE: >60 days
  T-C: >35 days
15 mg/kg, DAY 4
  tumor volume changes from baseline, Median +/− nMAD: 0 +/− 0 (n = 9)
15 mg/kg, DAY 7
  tumor volume changes from baseline, Median +/− nMAD: 0 +/− 25
15 mg/kg, DAY 11
  tumor volume changes from baseline, Median +/− nMAD: −53 +/− 19
15 mg/kg, DAY 14
  tumor volume changes from baseline, Median +/− nMAD: −53 +/− 27
15 mg/kg, DAY 18
  tumor volume changes from baseline, Median +/− nMAD: −73 +/− 20
15 mg/kg, DAY 21
  tumor volume changes from baseline, Median +/− nMAD: −85 +/− 13
15 mg/kg, DAY 25
  tumor volume changes from baseline, Median +/− nMAD: −85 +/− 13
15 mg/kg, DAY 28
  tumor volume changes from baseline, Median +/− nMAD: −85 +/− 13
15 mg/kg, DAY 32
  tumor volume changes from baseline, Median +/− nMAD: −85 +/− 19
15 mg/kg, DAY 35
  tumor volume changes from baseline, Median +/− nMAD: −85 +/− 19
15 mg/kg, DAY 39
  tumor volume changes from baseline, Median +/− nMAD: −85 +/− 38
15 mg/kg, DAY 42
  tumor volume changes from baseline, Median +/− nMAD: −85 +/− 38
15 mg/kg, DAY 46
  tumor volume changes from baseline, Median +/− nMAD: −85 +/− 38
15 mg/kg, DAY 49
  tumor volume changes from baseline, Median +/− nMAD: −85 +/− 38
15 mg/kg, DAY 53
  tumor volume changes from baseline, Median +/− nMAD: −85 +/− 38
15 mg/kg, DAY 56
  tumor volume changes from baseline, Median +/− nMAD: −85 +/− 38
24.2 mg/kg i.v./q4dx3
  #CR: 1
  #PR: 5
  #TFS: 1
  Drug Deaths Total: 0
  Weight Change at Nadir %: −15%
  Weight Change at Nadir Day: 14 days
  Tumor Volume Data (Day 21) Median: 101.5 mm^3
  ΔT/ΔC %: −6.9%
  MTTE: >60 days
  T-C: >35 days
24.2 mg/kg, DAY 4
  tumor volume changes from baseline, Median +/− nMAD: 22 +/− 22
24.2 mg/kg, DAY 7
  tumor volume changes from baseline, Median +/− nMAD: 0 +/− 9.5
24.2 mg/kg, DAY 11
  tumor volume changes from baseline, Median +/− nMAD: −26.5
24.2 mg/kg, DAY 14
  tumor volume changes from baseline, Median +/− nMAD: −29.5
24.2 mg/kg, DAY 18
  tumor volume changes from baseline, Median +/− nMAD: −61.5 +/− 27
24.2 mg/kg, DAY 21
  tumor volume changes from baseline, Median +/− nMAD: −63 +/− 25.5
24.2 mg/kg, DAY 25
  tumor volume changes from baseline, Median +/− nMAD: −69.5
24.2 mg/kg, DAY 28
  tumor volume changes from baseline, Median +/− nMAD: −60 +/− 28.5
24.2 mg/kg, DAY 32
  tumor volume changes from baseline, Median +/− nMAD: −60 +/− 28.5
24.2 mg/kg, DAY 35
  tumor volume changes from baseline, Median +/− nMAD: −60 +/− 35
24.2 mg/kg, DAY 39
  tumor volume changes from baseline, Median +/− nMAD: −60 +/− 35
24.2 mg/kg, DAY 42
  tumor volume changes from baseline, Median +/− nMAD: −71 +/− 46.5
24.2 mg/kg, DAY 46
  tumor volume changes from baseline, Median +/− nMAD: −71 +/− 46.5
24.2 mg/kg, DAY 49
  tumor volume changes from baseline, Median +/− nMAD: −71 +/− 43
24.2 mg/kg, DAY 53
  tumor volume changes from baseline, Median +/− nMAD: −64.5 +/− 45.5
24.2 mg/kg, DAY 56
  tumor volume changes from baseline, Median +/− nMAD: −64.5 +/− 46.5
Conclusion of example 4, dose equivalent basis
  antitumor activity compared with docetaxel: more efficacious than docetaxel at both mid doses
